≈ marks a conversion by molar mass, not a printed value.
Columns and labels:
C. krusei (ATCC 6258) = assay: Microdilution susceptibility assay (MIC); format: cell-based, Candida krusei; conditions: Pichia kudriavzevii, ATCC6258
Description: (§1) Compounds 1–10 were screened for their antimicrobial activity against gram-negative bacteria, gram-positive bacteria, and yeasts, listed in Table 1. Bacteria were grown in Mueller-Hinton Broth and yeasts were grown in Sabouraud Dextrose Broth (SDB) during experiments. Overnight cultures were prepared routinely by subculturing of stock culture onto Mueller-Hinton Agar for bacteria and Sabouraud Dextrose Agar for yeasts.
(§2) Microdilution susceptibility assay was used for the determination of antibacterial and anticandidal efficacy of compounds 1–10. Chloramphenicol and ketoconazole were used as positive controls for bacteria and yeasts, respectively. All experiments were designed according to the Clinical Laboratory Standards Institute (CLSI). All chemicals were dissolved in dimethyl sulfoxide (DMSO) to obtain stock solution (10 mg/mL). Two-fold serial dilutions (800, 400, 200...0.78 µg/mL) of the compounds were prepared from stock solutions with dH2O. 100 µL of each solution was transferred to 96-well microtiter plates and 100 µL of 10^6 CFU/mL of bacteria and 2 × 10^3 of CFU/mL yeast were added to related wells. As negative controls, wells including microorganisms without agents and wells including agents without microorganisms were used. The plates were kept at 35 °C for 18–20 h and the growth was determined with resazurin (20 mg/mL). Assays were carried out in triplicate.

C6 rat glioma cell line = assay: MTT assay; format: cell-based; conditions: Rattus norvegicus, C6
Description: (§3) The anticancer effects of compounds 1–10 on A549 human lung adenocarcinoma (ATCC® CCL-185™), HepG2 human hepatocellular carcinoma (ATCC® HB-8065™), and C6 rat glioma (ATCC® CCL107™) cell lines were assessed using 3-(4,5-Dimethylthiazol-2-yl)-2,5-diphenyltetrazolium bromide (MTT) assay, whereas the selectivity of compounds 1–10 was tested using NIH/3T3 mouse embryonic fibroblast cell line (ATCC® CRL-1658™, London, UK). All cell lines were incubated according to the supplier’s recommendations. The cells were seeded as 1 × 10^4 cells into each well of the 96-well plates. MTT assay was performed as previously described. The compounds were tested between the concentrations equal to 1 mM and 0.000316 mM (1.0, 0.316, 0.10, 0.0316, 0.01, 0.00316, 0.001, 0.000316 mM). Stock solutions of compounds were prepared in dimethyl sulfoxide (DMSO) and further dilutions were made with fresh culture medium. The final DMSO concentration was under 1% [34] and cisplatin was used as a positive control. Inhibition % was calculated for each concentration according to the formula below, and IC50 values were determined by plotting a dose–response curve of inhibition % versus compound concentrations tested. All experiments were performed in quadruplicate.Inhibition % = 100 − [(ODtest compound − ODblank/ODsolvent control − ODblank)] × 100(1)

[1] = test system: A549 human lung adenocarcinoma cell line; assay: MTT assay; format: cell-based; conditions: Homo sapiens, A549
Description: as §3

[2] = test system: HepG2 human hepatocellular carcinoma cell line; assay: MTT assay; format: cell-based; conditions: Homo sapiens, HepG2
Description: as §3

[3] = test system: NIH/3T3 mouse embryonic fibroblast cell line; assay: MTT assay; format: cell-based; conditions: Mus musculus, NIH3T3, healthy cells for selectivity
Description: as §3

C. glabrata (ATCC 90030) = assay: Microdilution susceptibility assay (MIC); format: cell-based, Candida glabrata; conditions: Nakaseomyces glabratus, ATCC90030
Description: as §1, §2

E. faecalis (ATCC 29212) [4] = assay: Microdilution susceptibility assay (MIC); format: cell-based; conditions: Enterococcus faecalis, ATCC29212
Description: as §1, §2

E. coli (ATCC 25922) = assay: Microdilution susceptibility assay (MIC); format: cell-based; conditions: Escherichia coli, ATCC25922
Description: as §1, §2

C. albicans (ATCC 90028) = assay: Microdilution susceptibility assay (MIC); format: cell-based; conditions: Candida albicans, ATCC90028
Description: as §1, §2

E. faecalis (ATCC 51299) [5] = assay: Microdilution susceptibility assay (MIC); format: cell-based; conditions: Enterococcus faecalis, ATCC51299
Description: as §1, §2

[6] = test system: K. pneumoniae (ATCC 700603); assay: Microdilution susceptibility assay (MIC); format: cell-based; conditions: Klebsiella pneumoniae, ATCC700603
Description: as §1, §2

S. aureus (ATCC 25923) = assay: Microdilution susceptibility assay (MIC); format: cell-based; conditions: Staphylococcus aureus, ATCC25923
Description: as §1, §2

[7] = test system: C. parapsilosis (ATCC 22019); assay: Microdilution susceptibility assay (MIC); format: cell-based, Candida parapsilosis; conditions: Lodderomyces parapsilosis, ATCC22019
Description: as §1, §2

E. faecalis (ATCC 29212) [8] = assay: ATP luminescence microbial cell viability assay; format: cell-based, Enterococcus faecalis; conditions: 24 h treatment, result in words
Description: (§4) A model from BioTek Instruments Inc. combined with a BacTiter-Glo^TM Microbial Cell Viability assay (Promega Corp., Madison, WI, USA) was used to provide a sensitive and rapid method for determining the number of viable microbial cells in culture based on quantitation of the ATP present. […] After incubation, cultures were added into the wells (final concentration of bacteria was 5 × 10^5 CFU/mL and 2.5 × 10^6 CFU/mL for yeasts). After adding the BacTiter reagent, incubation time for bacteria and yeasts was 5 min and 15 min, respectively.
(§5) The assay generates a “glow-type” luminescent signal, produced by the luciferase reaction. Briefly, after chemicals and strains were incubated for 24 h, 100 µL of the culture was taken from each well and mixed with the same volume of the BacTiter-Glo™ reagent in a white, opaque-walled microtiter plate. Control wells containing medium without cells were prepared to obtain a value for background luminescence. Cells without compound were used as an ATP-positive control. The microplates were further incubated under agitation for 7 min. Bioluminescence was recorded in a multi-detection microplate reader (BioTek Synergy 2 Multi-Mode Microplate Reader, BioTek Instruments, Winooski, VT, USA). In Figure 3, results were given as percentage of untreated control, which is set at 100%. Experiments were performed in triplicate and each sample was measured in four replicates.

E. faecalis (ATCC 51299) [9] = assay: ATP luminescence microbial cell viability assay; format: cell-based, Enterococcus faecalis; conditions: 24 h treatment, result in words
Description: as §4, §5

C. albicans = assay: ATP luminescence microbial cell viability assay; format: cell-based, Candida albicans; conditions: 24 h treatment, result in words
Description: as §4
The assay generates a “glow-type” luminescent signal, produced by the luciferase reaction. Briefly, after chemicals and strains were incubated for 24 h, 100 µL of the culture was taken from each well and mixed with the same volume of the BacTiter-Glo™ reagent in a white, opaque-walled microtiter plate. Control wells containing medium without cells were prepared to obtain a value for background luminescence. Cells without compound were used as an ATP-positive control. The microplates were further incubated under agitation for 7 min. Bioluminescence was recorded in a multi-detection microplate reader (BioTek Synergy 2 Multi-Mode Microplate Reader, BioTek Instruments, Winooski, VT, USA). […] Experiments were performed in triplicate and each sample was measured in four replicates.

SMILES | MIC (C. krusei (ATCC 6258)) [µg/mL] | IC50 (C6 rat glioma cell line) [µg/mL] | IC50 [1] [µg/mL] | IC50 [2] [µg/mL] | IC50 [3] [µg/mL] | MIC (C. glabrata (ATCC 90030)) [µg/mL] | melting point [°C] | MIC (E. faecalis (ATCC 29212) [4]) [µg/mL] | MIC (E. coli (ATCC 25922)) [µg/mL] | MIC (C. albicans (ATCC 90028)) [µg/mL] | MIC (E. faecalis (ATCC 51299) [5]) [µg/mL] | MIC [6] [µg/mL] | MIC (S. aureus (ATCC 25923)) [µg/mL] | MIC [7] [µg/mL] | antimicrobial activity in ATP bioluminescence assay (E. faecalis (ATCC 29212) [8]) | antimicrobial activity in ATP bioluminescence assay (E. faecalis (ATCC 51299) [9]) | antifungal activity in ATP bioluminescence assay (C. albicans)
Cn1cccc1C(=O)C=Cc1ccc(-c2cccc([N+](=O)[O-])c2)o1 [Compound 2, 1-(1-Methyl-1H-pyrrol-2-yl)-3-(5-(3-nitrophenyl)furan-2-yl)prop-2-en-1-one] | 100 (≈ 310 µM) | 258 (≈ 800 µM) | 322 (≈ 999 µM) | 277 (≈ 859 µM) | > 322 | 100 (≈ 310 µM) | 123 to 124 | 100 (≈ 310 µM) | 100 (≈ 310 µM) | 100 (≈ 310 µM) | 100 (≈ 310 µM) | 200 (≈ 621 µM) | 200 (≈ 621 µM) | 100 (≈ 310 µM) | sensitive | antimicrobial activity close to chloramphenicol | 
Cn1cccc1C(=O)C=Cc1ccc(-c2ccccc2[N+](=O)[O-])o1 [Compound 3, 1-(1-Methyl-1H-pyrrol-2-yl)-3-(5-(2-nitrophenyl)furan-2-yl)prop-2-en-1-one] | 100 (≈ 310 µM) | > 322 | > 322 | 27 (≈ 83.8 µM) | > 322 | 100 (≈ 310 µM) | 94 to 95 | 100 (≈ 310 µM) | 100 (≈ 310 µM) | 50 (≈ 155 µM) | 200 (≈ 621 µM) | 200 (≈ 621 µM) | 100 (≈ 310 µM) | 50 (≈ 155 µM) | sensitive |  | no statistically significant effects
Cn1cccc1C(=O)C=Cc1ccc(-c2ccc(Cl)c(Cl)c2)o1 [Compound 10, 1-(1-Methyl-1H-pyrrol-2-yl)-3-(5-(3,4-dichlorophenyl)furan-2-yl)prop-2-en-1-one] | 200 (≈ 578 µM) | 100 (≈ 289 µM) | 346 (≈ 999 µM) | 100 (≈ 289 µM) | 148 (≈ 427 µM) | 200 (≈ 578 µM) | 132 to 133 | 400 (≈ 1160 µM) | 100 (≈ 289 µM) | 100 (≈ 289 µM) | 100 (≈ 289 µM) | 200 (≈ 578 µM) | 200 (≈ 578 µM) | 100 (≈ 289 µM) |  | antimicrobial activity close to chloramphenicol | 
